Reference: patent US20240181125A1, “COMPOSITIONS AND METHODS FOR SCARLESS WOUND HEALING IN DIABETES” (Washington University, priority 2022, published 2024)
Bridge positions count the residues as written; N and C are the ends. Peptide text beside a SMILES is read from it. * marks the point of attachment. FITC = O=C1OC2(c3ccc(O)cc3Oc3cc(O)ccc32)c2ccc(NC(=S)*)cc21

Columns and labels:
TGFβ1/p-Smad2/3 pathway = assay: Immunoblotting/IF of p-Smad2/3 and α-SMA in HDFs; assay type: cell-based, human
Experimental: (§1) For in vitro tests, protein lysates were collected from HDFs. Pre-cooled cell scrapers were used to detach the cells, and the cells were re-suspended in RIPA lysis buffer with the inhibitor cocktail. For in vivo tests, wound skin tissues were washed three times with pre-cooled DPBS, dissected into small pieces, and re-suspended in RIPA lysis buffer containing protease and phosphatase inhibitors. Homogenization was then performed thereafter with an ultrasonic processor (Cole Parmer). After centrifugation at 12,000 g for 20 min, the supernatants were collected, and protein concentrations were measured using a Bradford protein assay kit (Bio-rad).
(§2) The protein samples were separated by 10% Mini-PROTEAN TGX stain-free precast gels (Bio-rad) and transferred onto an immune-blot PVDF membrane. The blots were washed three times with DPBS containing 0.1% Tween 20 (PBST), blocked with 5% milk powder in PBST buffer for 40 min, and incubated with primary antibodies at specific dilutions overnight at 4° C. The primary antibodies included rabbit GAPDH antibody (1:5000, Cell signaling), rabbit anti-a-smooth muscle actin (α-SMA) antibody (1:2000, Cell signaling), rabbit anti-phospho-Smad2(Ser465/467)/Smad3 (Ser423/425) (1:500, Cell signaling), and rabbit anti-phospho-p38 (1:500, Cell signaling). The membranes were washed three times with PBST and incubated with horseradish peroxidase (HRP)-conjugated secondary antibodies (1:2500). Immunoblots were then washed with PBST and detected with a WesternBright HRP substrate detection kit (Advansta). The ChemiDoc XPS+system (Bio-rad) was used to image the blots.

HDFs = assay: Cell proliferation (dsDNA) under high glucose and TGFβ1, HDF; assay type: cell-based, human; conditions: high glucose, TGFβ1 10 ng/ml, PTβR2I 10 μg/mL; p<0.001
Experimental: (§3) HDFs, HaCaTs, and HAECs were seeded in 96-well plates at respective densities of 1.5×10^4 cells/mL, 2×10^4 cells/mL, and 2×10^4 cells/mL. High glucose (4.5 g/L) basal medium with 1% P/S was used for the culture. After 24 hours, TGFβ1 (10 ng/ml) or TGFβ1 (10 ng/ml)/PTβR2I (10 μg/mL) was added to the medium. The culture continued for three days. The medium was then replaced by papain solution and incubated at 60° C. for 24 hours. The dsDNA content was tested using a Quant-iT™ PicoGreen dsDNA Assay Kit (Invitrogen).

[1] = In vitro release of peptide from hydrogel; assay type: physicochemical; conditions: 21-day study, 37° C., DPBS; loadings 10, 20, 50 μg/mL
Experimental: To characterize the ECG release properties of the NIPAAm-based hydrogels disclosed herein, the following experiments were conducted. Hydrogel samples were synthesized with varying levels of ECG loading: 10 μg/mL, 20 μg/mL, and 50 μg/mL. The cumulative release of ECG from the hydrogel samples was assessed over a three-week period.
Wound dressings were fabricated by encapsulating PTβR2I in the hydrogel solution at 4° C. Briefly, PTβR2I solution was mixed with 6 wt. % hydrogel solution to reach final PTβR2I concentrations of 10 μg/mL, 20 μg/mL and 50 μg/mL. The mixtures were stirred at 4° C. for 12 hours. To determine PTβR2I release kinetics, the mixtures were first incubated at 37° C. to gel. After 1 hour, the supernatant was replaced by a release medium (DPBS with 1% P/S). The medium was then collected at pre-determined time points for 21 days, and a fresh release medium was added after each collection. The concentration of the released PTβR2I was determined by measuring the fluorescence intensity and calculating the corresponding concentration using a standard curve. The bioactivity of the released PTβR2I was evaluated by its ability to bind to the TβR2 on the HDFs. […] After 2 hours of incubation, the cells were washed three times with DPBS, and the fluorescence intensity was measured using a microplate reader (excitation/emission=485/535 nm).

HAECs [2] = assay: Endothelial cell lumen formation in 3D collagen gel; assay type: cell-based, human; conditions: high glucose and TGFβ1
Experimental: A 3D collagen gel model was used to evaluate endothelial cell lumen formation under high glucose and TGFβ1 conditions. Briefly, the collagen gel was formed by mixing 4 mg/ml of rat tail type I collagen solution (Life Technologies), FBS, DMEM, and NaOH. Then 500 μL of the mixture was transferred to a 48-well plate and placed in a 37° C. incubator for 30 minutes to allow gelation. HAECs were then seeded into the collagen gel at a density of 2×10^4 cells/well. TGFβ1 (10 ng/ml) or TGFβ1 (10 ng/ml)/PTβR2I (10 μg/mL) was then added. After three days of culturing, cells were stained with F-actin (Abcam, ab176753) and DAPI (Millipore-Sigma). The constructs were imaged by
Olympus FV1200 confocal microscopy with z-stack mode. The lumen density was calculated from the images.

wounds of db/+ mice = assay: Wound assay on non-diabetic db/+ mice; conditions: mouse, in vivo
Experimental: The same wound assay was performed on db/+ mice and monitored the wound closure for eight days (FIG. 11A). The No-treatment, Gel, and PTβR2I/Gel groups all had similar healing rates, with wound sizes less than 10% of the original after 8 days (FIG. 11B and C). To delineate the mechanism, in vitro immunoblotting was performed on dermal fibroblasts under normal glucose conditions that mimicked the microenvironment of db/+ mice (FIG. 11D).

TGFβ1/p38 pathway = assay: Immunoblotting of p-p38 in HDFs; assay type: cell-based, human
Experimental: as §1, §2

HAECs [3] = assay: 2D scratch migration assay, HAEC; assay type: cell-based, human; conditions: high glucose and TGFβ1, 36 hours
Experimental: HDFs, HaCaTs, and HAECs were cultured in 6-well plates using serum-free high glucose (4.5 g/L) basal medium with 1% P/S. After the cells reached confluency, a 200-μL pipet tip was used to scrape the cell monolayer. Then 3 mL of medium containing TGFβ1 (10 ng/ml) or TGFβ1 (10 ng/ml)/PTβR2I (10 μg/mL) was added to the wells. The cells were imaged at predetermined time points using a bright-field microscope. The distances between the scratch walls were measured using ImageJ to calculate the migration ratio

HAECs [4] = assay: Cell proliferation (dsDNA) under high glucose and TGFβ1, HAEC; assay type: cell-based, human; conditions: high glucose, TGFβ1 10 ng/ml, PTβR2I 10 μg/mL; p<0.05
Experimental: as §3

[5] = system: human aortic endothelial cells (HAEC); assay: Cytotoxicity of PTβR2I on endothelial cells; assay type: cell-based; set-up: dose or concentration left out as unconfirmed

Compound: CC(C)C[C@@H]1NC(=O)CNC(=O)[C@@H](NC(=O)[C@@H](N)CCC(=O)O)CSSC[C@@H](C(=O)N[C@@H](CCCCNC(=S)Nc2ccc3c(c2)C(=O)OC32c3ccc(O)cc3Oc3cc(O)ccc32)C(=O)O)NC(=O)[C@H](CC(C)C)NC(=O)[C@H](CCCNC(=N)N)NC(=O)[C@H](Cc2c[nH]c3ccccc23)NC(=O)[C@H](C(C)C)NC(=O)[C@H](CCCNC(=N)N)NC(=O)[C@H](CC(=O)O)NC(=O)[C@@H]2CCCN2C(=O)[C@H](CCCNC(=N)N)NC(=O)CNC(=O)[C@H](C(C)C)NC(=O)[C@@H]2CCCN2C(=O)[C@H](CC(C)C)NC1=O [PTβR2I, ECGLLPVGRPDRVWRLCK-FITC] (H-ECGLLPVGRPDRVWRLCK(FITC)-OH; disulfide 2-17; N-terminus and C-terminus assumed)
- phosphorylation of Smad2/3, PTβR2I with TGFβ1 vs TGFβ1 alone (TGFβ1/p-Smad2/3 pathway; high glucose): no substantial difference
- α-SMA+ myofibroblast formation in presence of TGFβ1 (TGFβ1/p-Smad2/3 pathway; high glucose): regardless of the addition of PTβR2I
- expression of downstream marker α-SMA (TGFβ1/p-Smad2/3 pathway; high glucose, TGFβ1): did not alter
- TGFβ1/p-Smad2/3 pathway (TGFβ1/p-Smad2/3 pathway; normal glucose): apparently inhibited
- proliferation (dsDNA, day 3) (HDFs): Significantly improved proliferation
- release profile from wound dressing [1]: initial burst release was observed on the first day, followed by a slower and sustained release until day 21
- lumen density (HAECs [2]): significantly increased the lumen density
- efficacy on db/+ mice (wounds of db/+ mice): not effective
- p-p38 expression (TGFβ1/p38 pathway; high glucose, with TGFβ1): significantly downregulated
- p-p38 (TGFβ1/p38 pathway; normal glucose): did not downregulate
- migration (HAECs [3]): significantly higher number of cells had migrated
- proliferation (dsDNA, day 3) (HAECs [4]): Significantly improved proliferation
- cell viability [5]: no decrease in viability
